The supplement of paper PMC10307832

Assays:
Assay in all cases: relative viability (nuclei count vs DMSO), 5 days (fraction); higher = more cells survive
[1] = compound: CCn1c(-c2nonc2N)nc2c(C#CC(C)(C)O)ncc(OC[C@H]3CCCNC3)c21 + O=C(CCCCCCC(=O)Nc1ccccc1)NO [Vorinostat] (partner 1 µM)
Summary of the method: (§1)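 Dosing by pin tool came one day after lung cancer cell lines were seeded in 1536-well plates, using either one drug or a fixed anchor-drug dose plus five library-drug doses (not always all listed) in √10 steps. After 5 days, nuclei were counted on 4× images. Relative viability is treated-well nuclei count divided by vehicle-well nuclei count, and values are medians of duplicate plates.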

BAM7 + Foretinib = compound: CCOC1=CC=CC=C1N=NC2=C(NN(C2=O)C3=NC(=CS3)C4=CC=CC=C4)C [BAM7] + COc1cc2c(Oc3ccc(NC(=O)C4(C(=O)Nc5ccc(F)cc5)CC4)cc3F)ccnc2cc1OCCCN1CCOCC1 [Foretinib] (partner 0.25 µM)
Summary of the method: as §1

BAM7 + Vorinostat = compound: CCOC1=CC=CC=C1N=NC2=C(NN(C2=O)C3=NC(=CS3)C4=CC=CC=C4)C [BAM7] + O=C(CCCCCCC(=O)Nc1ccccc1)NO [Vorinostat] (partner 1 µM)
Summary of the method: as §1

BAM7 + Alpelisib = compound: CCOC1=CC=CC=C1N=NC2=C(NN(C2=O)C3=NC(=CS3)C4=CC=CC=C4)C [BAM7] + Cc1nc(NC(=O)N2CCC[C@H]2C(N)=O)sc1-c1ccnc(C(C)(C)C(F)(F)F)c1 [Alpelisib] (partner 2 µM)
Summary of the method: as §1

UMC-11 gave a relative viability ([1]; first compound 0.01 µM) of 0.423, a relative viability ([1]; first compound 0.03162 µM) of 0.375 and a relative viability ([1]; first compound 0.1 µM) of 0.357. For the same cell line, the relative viability ([1]; first compound 0.3162 µM) was 0.316, the relative viability ([1]; first compound 1 µM) was 0.346 and the relative viability (BAM7 + Foretinib; first compound 0.5 µM) was 1.03. The relative viability (BAM7 + Foretinib; first compound 5 µM) was 1.09, the relative viability (BAM7 + Foretinib; first compound 15.81 µM) was 1.13 and the relative viability (BAM7 + Foretinib; first compound 50 µM) was 1.07. For the same cell line, the relative viability (BAM7 + Vorinostat; first compound 0.5 µM) was 0.37, the relative viability (BAM7 + Vorinostat; first compound 5 µM) was 0.478 and the relative viability (BAM7 + Vorinostat; first compound 15.81 µM) was 0.469. It also gave a relative viability (BAM7 + Vorinostat; first compound 50 µM) of 0.362, a relative viability (BAM7 + Alpelisib; first compound 0.5 µM) of 1.11 and a relative viability (BAM7 + Alpelisib; first compound 5 µM) of 1.12. It also gave a relative viability (BAM7 + Alpelisib; first compound 15.81 µM) of 0.992 and a relative viability (BAM7 + Alpelisib; first compound 50 µM) of 0.989.
